pEC50, pKi: −log10 of the molar value. Active and inactive are the calls of the source. The rule behind the calls is not given here.
Experiments:
[1] = target: T1, Neuropeptide Y receptor type 5 (Homo sapiens, UniProt Q15761); test: Binding affinity towards human neuropeptide Y receptor type 5 using [125I]-PYY as radioligand in baculovirus-infected Sf9 cells
T1 sequence (Q15761 whole entry): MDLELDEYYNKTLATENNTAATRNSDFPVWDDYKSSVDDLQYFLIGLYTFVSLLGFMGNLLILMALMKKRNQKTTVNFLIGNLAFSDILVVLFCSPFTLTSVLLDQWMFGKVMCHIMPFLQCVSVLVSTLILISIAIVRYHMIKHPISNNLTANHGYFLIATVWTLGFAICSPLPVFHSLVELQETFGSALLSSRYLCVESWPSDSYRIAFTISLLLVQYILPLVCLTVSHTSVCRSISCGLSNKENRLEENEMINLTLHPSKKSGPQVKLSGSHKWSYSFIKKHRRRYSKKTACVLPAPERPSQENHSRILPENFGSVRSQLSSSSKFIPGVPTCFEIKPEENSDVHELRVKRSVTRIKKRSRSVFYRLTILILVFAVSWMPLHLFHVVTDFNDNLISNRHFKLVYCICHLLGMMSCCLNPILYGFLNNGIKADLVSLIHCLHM

[2] = system: HMCB cell line; test: Compound was tested for [Ca2+] mobilization in NPY5 transfected human Bowes melanoma (HMCB) cell line.; assay type: functional, cell-based
[3] = species on record: Rattus norvegicus; test: Food intake was measured for a 3-h period in 24-h food deprived rats;+/- =significant reduction in food intake/- =no significant reduction in food intake; assay type: functional, organism-based
[4] = system: Rattus norvegicus; test: Overnight food intake was measured in rat model in which compound was dosed 2 hr prior to onset of the dark cycle;+/- =significant reduction in food intake; assay type: functional, organism-based
[5] = system: Rattus norvegicus; test: Locomotor activity in male Sprague-Dawley rats at 40 mg/kg oral dose; assay type: functional, organism-based; set-up: dose 40 mg/kg
[6] = species on record: Rattus norvegicus; test: Food intake was measured for a 3-h period in 24-h food deprived rats;+/+ =significant reduction in food intake; assay type: functional, organism-based
[7] = system: Rattus norvegicus; test: Overnight food intake was measured in rat model in which compound was dosed 2 hr prior to onset of the dark cycle;- =no significant reduction in food intake; assay type: functional, organism-based
[8] = species on record: Rattus norvegicus; test: Food intake was measured for a 3-h period in 24-h food deprived rats;+/- =significant reduction in food intake / - =no significant reduction in food intake; assay type: functional, organism-based
[9] = system: Rattus norvegicus; test: Concentration of compound in brain was determined following a dose of 40 mg/kg administered orally at 4 hr; assay type: functional, organism-based; set-up: dose 40 mg/kg
[10] = system: Rattus norvegicus; test: Concentration of compound in brain was determined following a dose of 40 mg/kg administered orally at 8 hr; assay type: functional, organism-based; set-up: dose 40 mg/kg
[11] = system: Rattus norvegicus; test: Concentration of compound in plasma was determined following a dose of 40 mg/kg administered orally at 1 hr; assay type: functional, organism-based; set-up: dose 40 mg/kg
[12] = system: Rattus norvegicus; test: Concentration of compound in plasma was determined following a dose of 40 mg/kg administered orally at 2 hr; assay type: functional, organism-based; set-up: dose 40 mg/kg
[13] = system: Rattus norvegicus; test: Concentration of compound in plasma was determined following a dose of 40 mg/kg administered orally at 4 hr; assay type: functional, organism-based; set-up: dose 40 mg/kg
[14] = system: Rattus norvegicus; test: Concentration of compound in plasma was determined following a dose of 40 mg/kg administered orally at 8 hr; assay type: functional, organism-based; set-up: dose 40 mg/kg
[15] = system: Rattus norvegicus; test: Concentration of compound in Cerebrospinal fluid(CSF) was determined following a dose of 40 mg/kg administered orally at 8 hr; assay type: functional, organism-based; set-up: dose 40 mg/kg
[16] = system: Rattus norvegicus; test: Concentration of compound in brain was determined following a dose of 40 mg/kg administered orally at 1 hr; assay type: functional, organism-based; set-up: dose 40 mg/kg
[17] = system: Rattus norvegicus; test: Overnight food intake was measured in rat model in which compound was dosed 2 hr prior to onset of the dark cycle; - =no significant reduction in food intake; assay type: functional, organism-based
[18] = species on record: Rattus norvegicus; test: Ratio of the concentrations of compound in Brain to that of Plasma was determined at 1 hr; assay type: functional
[19] = species on record: Rattus norvegicus; test: Ratio of the concentrations of compound in Brain to that of Plasma was determined at 4 hr; assay type: functional
[20] = species on record: Rattus norvegicus; test: Ratio of the concentrations of compound in Brain to that of Plasma was determined at 8 hr; assay type: functional
[21] = species on record: Rattus norvegicus; test: Ratio of the concentrations of compound in brain to that of Plasma was determined at 2 hr; assay type: functional
[22] = system: Rattus norvegicus; test: Concentration of compound in brain was determined following a dose of 40 mg/kg administered orally at 2 hr; assay type: functional, organism-based; set-up: dose 40 mg/kg

Row | pKi [1] | pEC50 [2] | Structure (SMILES) | also measured
1 | 5.82 |  | c1ccc(-c2c[nH]c(-c3ccncc3)n2)cc1 | 
2 | 6.28 |  | c1ccc(-c2c[nH]c(-c3cccnc3)n2)cc1 | 
3 | 8.80 | 8.49 | FC(F)(F)c1cccc(-c2c[nH]c(-c3cccnc3)n2)c1 | Activity [3]: inactive; Activity [4]: Active; Locomotor activity [5]: Active
4 | < 5.00 |  | Clc1ccc(-c2c[nH]c(-c3cnc4ccccc4c3)n2)cc1Cl | 
5 | 5.52 |  | N#Cc1ccc(-c2c[nH]c(-c3cccnc3)n2)cc1 | 
6 | 7.57 | 7.41 | FC(F)(F)c1ccccc1-c1c[nH]c(-c2cccnc2)n1 | 
7 | 7.47 |  | Fc1ccc(-c2c[nH]c(-c3cccnc3)n2)cc1F | 
8 | 6.94 | 7.77 | Clc1ccc(-c2c[nH]c(-c3nccc4ccccc34)n2)cc1Cl | 
9 | 6.64 | 7.44 | c1cncc(-c2nc(C3CCCCC3)c[nH]2)c1 | 
10 | 7.52 |  | Clc1ccc(-c2c[nH]c(-c3ccccn3)n2)cc1Cl | 
11 | 7.40 | 7.28 | Cc1ccccc1-c1c[nH]c(-c2cccnc2)n1 | 
12 | 7.80 |  | Clc1ccc(-c2c[nH]c(-c3cccnc3)n2)cc1 | Activity [6]: Active; Activity [7]: inactive; Locomotor activity [5]: Active
13 | 8.40 |  | Clc1ccc(-c2c[nH]c(-c3cccnc3)n2)cc1Cl | Activity [8]: inactive
14 | 6.83 | 6.14 | COc1ccc(-c2c[nH]c(-c3cccnc3)n2)cc1OC | 
15 | 8.10 |  | Clc1cccc(-c2c[nH]c(-c3cccnc3)n2)c1 | Activity [3]: inactive; Concentration [9]: 29 µM; Concentration [10]: 4 µM; Concentration [11]: 10 µM; Concentration [12]: 11 µM; Concentration [13]: 6.2 µM; Concentration [14]: 1.3 µM; Concentration [15]: 0.011 µM; Concentration [16]: 45 µM; Activity [17]: inactive; Ratio [18]: 4.4; Ratio [19]: 4.8; Ratio [20]: 5.3; Ratio [21]: 5.1; Concentration [22]: 56 µM
16 | 7.43 |  | FC(F)(F)c1ccc(-c2c[nH]c(-c3cccnc3)n2)cc1 | 
17 | 8.46 |  | Clc1ccc(-c2c[nH]c(-c3ccncc3)n2)cc1Cl | 
18 | 6.68 |  | FC(F)(F)Oc1ccc(-c2c[nH]c(-c3cccnc3)n2)cc1 | 
19 | 7.16 |  | Cc1[nH]c(-c2cccnc2)nc1-c1ccc(Cl)cc1 | 
20 | 7.25 | 7.35 | COc1cccc(-c2c[nH]c(-c3cccnc3)n2)c1 | 
21 | 5.32 |  | Clc1ccc(-c2c[nH]c(-c3cc4ccccc4cn3)n2)cc1Cl | 
22 | 8.31 | 7.89 | FC(F)(F)Oc1cccc(-c2c[nH]c(-c3cccnc3)n2)c1 | 
23 | 7.68 | 7.82 | Clc1ccccc1-c1c[nH]c(-c2cccnc2)n1 | 
24 | 7.85 | 7.62 | Cc1cccc(-c2c[nH]c(-c3cccnc3)n2)c1 | 
25 | 7.40 |  | Clc1ccc(-c2c[nH]c(-c3cnccn3)n2)cc1Cl | 
26 | 7.47 |  | c1ccc(-c2c[nH]c(-c3ccccc3)n2)cc1 | 
27 | 7.72 | 7.40 | Cc1[nH]c(-c2cccnc2)nc1-c1cccc(Cl)c1 | 
28 | 5.84 |  | c1ccc(-c2c[nH]c(-c3ccccn3)n2)cc1 | 

Source: ChEMBL document CHEMBL1136300, “Structure-activity relationship studies on 2-heteroaryl-4-arylimidazoles NPY5 receptor antagonists” (Bioorg Med Chem Lett, 2003)
